Measurements published in ChEMBL document CHEMBL1201862, “PubChem BioAssay data set” (2004).
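Grown in 96-well plates, cells were treated for 48 hours with each compound at five concentrations. Insufficient inhibition: endpoint recorded as highest concentration tested. Abbreviation: GI50, concentration required for 50% inhibition of growth.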 Activity calls are given as the source filed them. No stated cut-off is given here; in the data, active = GI50 up to about 1.1 µM and inactive = higher. Non-standard residues stand in square brackets, D forms with d. Residues, ends and D or L forms follow the SMILES beside them. ξ: configuration not given here. *: point of attachment. ξHyp = O=C(O)C1CC(O)CN1; Cbz = O=C(OCc1ccccc1)*

Experiments:
Test in all cases: NCI-60 cell line screen, 48 h
DLD-1 = test system: DLD-1
DMS-114 = test system: DMS-114
DMS-273 = test system: DMS-273
KM-20L2 = test system: KM-20L2
RXF 631 = test system: RXF 631
MDA-MB-435 = test system: MDA-MB-435
NCI/ADR-RES = test system: NCI/ADR-RES
PC-3 = test system: PC-3
XF498 = test system: XF498

## CCC(C)COC(=O)c1ccc(/N=C\c2ccc(/C=N/c3ccc(C(=O)OCC(C)CC)cc3)cc2)cc1 (stereo not given)
DLD-1
  GI50: > 100 µM (inactive)
DMS-114
  GI50: > 100 µM (inactive)
DMS-273
  GI50: > 100 µM (inactive)
KM-20L2
  GI50: > 100 µM (inactive)
RXF 631
  GI50: > 100 µM (inactive)

## NC(=O)CNC(=O)C1CC(O)CN1C(=O)OCc1ccccc1 (stereo not given) (Cbz-[ξHyp]-Gly-NH2)
MDA-MB-435
  GI50: > 100 µM (inactive)
NCI/ADR-RES
  GI50: > 100 µM (inactive)
PC-3
  GI50: > 100 µM (inactive)

## CC1=CC2c3cccc4[nH]cc(c34)CC2N(C)C1 (stereo not given)
DLD-1
  GI50: > 37.8 µM (inactive)
DMS-114
  GI50: 51.2 µM (inactive)
DMS-273
  GI50: > 100 µM (inactive)
KM-20L2
  GI50: > 76.2 µM (inactive)
NCI/ADR-RES
  GI50: > 100 µM (inactive)
XF498
  GI50: 9.75 µM (inactive)

## CN(C)CCNC(=O)c1cccc2c1C(=O)c1ccccc1C2=O
DLD-1
  GI50: 25.5 µM (inactive)
DMS-114
  GI50: 15.7 µM (inactive)
DMS-273
  GI50: 23.7 µM (inactive)
KM-20L2
  GI50: 28 µM (inactive)
NCI/ADR-RES
  GI50: 27.4 µM (inactive)
XF498
  GI50: > 100 µM (inactive)

## O=C(O)CCSC(=S)Nc1cccc(F)c1
DLD-1
  GI50: 50.7 µM (inactive)
DMS-114
  GI50: 19.6 µM (inactive)
DMS-273
  GI50: 46.9 µM (inactive)
KM-20L2
  GI50: 89.1 µM (inactive)

## COc1ccc(C2C3COc4ccccc4C3=NN2c2ccccc2)cc1 (stereo not given)
MDA-MB-435
  GI50: 62.4 µM (inactive)
NCI/ADR-RES
  GI50: > 100 µM (inactive)
PC-3
  GI50: 57.7 µM (inactive)

## CCOC(C)OC1CC(n2cc(C)c(=O)[nH]c2=O)OC1CO (stereo not given)
DLD-1
  GI50: > 100 µM (inactive)
DMS-114
  GI50: > 100 µM (inactive)
DMS-273
  GI50: > 100 µM (inactive)
KM-20L2
  GI50: > 100 µM (inactive)
XF498
  GI50: > 100 µM (inactive)

## c1ccc2c(NCCCCCCCCNc3c4ccccc4nc4ccccc34)c3ccccc3nc2c1
DLD-1
  GI50: 0.143 µM (active)
DMS-114
  GI50: 1.01 µM (active)
DMS-273
  GI50: 0.043 µM (active)
KM-20L2
  GI50: 0.354 µM (active)
MDA-MB-435
  GI50: 1.04 µM (active)
NCI/ADR-RES
  GI50: 4.15 µM (inactive)
PC-3
  GI50: 0.0548 µM (active)
RXF 631
  GI50: 0.178 µM (active)
XF498
  GI50: 1.04 µM (active)

## CCOC(=O)C(O)(NC(=O)c1ccc(F)cc1)C(F)(F)F (stereo not given)
MDA-MB-435
  GI50: > 100 µM (inactive)
NCI/ADR-RES
  GI50: > 100 µM (inactive)
PC-3
  GI50: > 100 µM (inactive)

## C/N=C1\S/C(=N\c2ccc(N(C)C)cc2)N1C
DLD-1
  GI50: 29.8 µM (inactive)
DMS-114
  GI50: 17.9 µM (inactive)
DMS-273
  GI50: 54.1 µM (inactive)

## CCn1c(-c2ccccc2)cs/c1=N\C(P(=O)(O)O)P(=O)(O)O
MDA-MB-435
  GI50: > 100 µM (inactive)
NCI/ADR-RES
  GI50: > 100 µM (inactive)
PC-3
  GI50: > 100 µM (inactive)

## CC(=O)Nc1oc(C)nc1C#N
MDA-MB-435
  GI50: > 100 µM (inactive)
PC-3
  GI50: > 100 µM (inactive)

## CCc1cc2c(cc1CCCC(=O)O)CC1(Cc3ccc(C(=O)O)cc3C1)C2 (stereo not given)
MDA-MB-435
  GI50: > 100 µM (inactive)
NCI/ADR-RES
  GI50: > 100 µM (inactive)
PC-3
  GI50: > 100 µM (inactive)

## Cc1cccc(N2C(=O)C3c4[nH]c5ccc(C)cc5c4C4CCC(C(C)(C)C)CC4C3C2=O)c1 (stereo not given)
MDA-MB-435
  GI50: 40.9 µM (inactive)
NCI/ADR-RES
  GI50: 17.6 µM (inactive)
PC-3
  GI50: 13.7 µM (inactive)

## COc1cc(C(C)O)c(S(=O)(=O)CC(C)O)nn1 (stereo not given)
MDA-MB-435
  GI50: > 100 µM (inactive)
NCI/ADR-RES
  GI50: > 100 µM (inactive)

## COC1C(O)CC(OC2CC(Oc3cc4cc5c(c(O)c4c(O)c3C)C(=O)[C@@H](OC3CC(OC4CC(OC6CC(C)(O)C(OC(C)=O)C(C)O6)C(O)C(C)O4)C(O)C(C)O3)[C@H]([C@H](OC)C(=O)[C@@H](O)[C@@H](C)O)C5)OC(C)C2OC(C)=O)OC1C (stereo not given in full) [CHROMOMYCIN]
DLD-1
  GI50: 0.00849 µM (active)
DMS-114
  GI50: 2.14e-05 µM (active)
KM-20L2
  GI50: 0.00397 µM (active)
MDA-MB-435
  GI50: 2.44e-05 µM (active)
NCI/ADR-RES
  GI50: 0.75 µM (active)
PC-3
  GI50: 3.57e-05 µM (active)
XF498
  GI50: 0.00315 µM (active)

## Cc1[nH]c(=O)[nH]c(=O)c1C(=O)N(CCO)Cc1ccccc1
MDA-MB-435
  GI50: > 100 µM (inactive)
PC-3
  GI50: 24.6 µM (inactive)

## CCN(CC)CCOC(=O)c1ccc(N)cc1.CCOC(=O)Nc1ccc(S(=O)(=O)OC)cc1.CCOC(=O)Nc1ccc(S(=O)(=O)OC)cc1.Nc1ccc(C(=O)O)c(O)c1
DLD-1
  GI50: > 100 µM (inactive)
DMS-114
  GI50: > 100 µM (inactive)
KM-20L2
  GI50: > 100 µM (inactive)
RXF 631
  GI50: > 100 µM (inactive)

## CCOC(=O)CCc1c(C)c2c(OC(C)=O)cc(OC(C)=O)cc2oc1=O
DLD-1
  GI50: 46 µM (inactive)
DMS-114
  GI50: 23.4 µM (inactive)
DMS-273
  GI50: 35 µM (inactive)
KM-20L2
  GI50: > 100 µM (inactive)

## CC(=O)OCC1OC(N2C(=O)/C(=N\NC(N)=S)c3ccc([N+](=O)[O-])cc32)C(OC(C)=O)C1OC(C)=O (stereo not given)
DLD-1
  GI50: 29.6 µM (inactive)
DMS-114
  GI50: 23.1 µM (inactive)
DMS-273
  GI50: 17.4 µM (inactive)
KM-20L2
  GI50: 31.5 µM (inactive)
XF498
  GI50: 29.9 µM (inactive)

## COc1cccc(N2C(=O)C3c4[nH]c5ccc(C)cc5c4C4CCC(C(C)(C)C)CC4C3C2=O)c1 (stereo not given)
MDA-MB-435
  GI50: > 10 µM (inactive)
NCI/ADR-RES
  GI50: 3.51 µM (inactive)
PC-3
  GI50: 4.43 µM (inactive)

## Cc1ccccc1OCC(COC(=O)Nc1ccccc1)OC(=O)Nc1ccccc1 (stereo not given)
DLD-1
  GI50: 28.8 µM (inactive)
DMS-114
  GI50: 42.6 µM (inactive)
DMS-273
  GI50: 32.1 µM (inactive)
KM-20L2
  GI50: 52.2 µM (inactive)
RXF 631
  GI50: 9.93 µM (inactive)

## Cc1c2c(cc3c1[nH]c1ccccc13)C(c1ccc(F)cc1)=NCC2
DLD-1
  GI50: 0.851 µM (active)
DMS-114
  GI50: 0.746 µM (active)
DMS-273
  GI50: 0.63 µM (active)
KM-20L2
  GI50: 1.11 µM (active)
NCI/ADR-RES
  GI50: 0.774 µM (active)
XF498
  GI50: 1.67 µM (inactive)

## CC1=C[C@]2(CC(C)C3C(CC4(C)C5CCC6C(C)(C)C(=O)CC[C@@]67C[C@@]57CC[C@]34C)O2)OC1=O (stereo not given in full)
DLD-1
  GI50: 11 µM (inactive)
DMS-114
  GI50: 3.81 µM (inactive)
DMS-273
  GI50: 3.95 µM (inactive)
RXF 631
  GI50: 3.54 µM (inactive)
XF498
  GI50: 13.9 µM (inactive)

## COc1cc([C@@H]2c3cc4c(c(O[C@@H]5O[C@H]6CO[C@@H](C)O[C@H]6[C@H](O)[C@@H]5O)c3C[C@H]3COC(=O)[C@@H]32)OCO4)cc(OC)c1O
DLD-1
  GI50: 27.7 µM (inactive)
DMS-114
  GI50: 3.79 µM (inactive)
DMS-273
  GI50: 4.63 µM (inactive)
KM-20L2
  GI50: 34.9 µM (inactive)
NCI/ADR-RES
  GI50: 4.02 µM (inactive)
XF498
  GI50: 12.6 µM (inactive)

## CC(/C=N/N=C(N)N)=N\N=C(N)N
DLD-1
  GI50: 48.9 µM (inactive)
DMS-114
  GI50: 16.8 µM (inactive)
DMS-273
  GI50: 31.6 µM (inactive)
KM-20L2
  GI50: 12.8 µM (inactive)
MDA-MB-435
  GI50: 12.9 µM (inactive)
NCI/ADR-RES
  GI50: 4.15 µM (inactive)
PC-3
  GI50: 232 µM (inactive)
XF498
  GI50: 2.96 µM (inactive)

## Cc1cc(C)c(S(=O)(=O)N(CCCN)OCCON(CCCN)S(=O)(=O)c2c(C)cc(C)cc2C)c(C)c1
MDA-MB-435
  GI50: 3.89 µM (inactive)
NCI/ADR-RES
  GI50: 22.1 µM (inactive)
PC-3
  GI50: 1.73 µM (inactive)

## C[n+]1c2ccccc2c(C(=O)NC(CCCNC(=N)N)C(=O)O)c2ccccc21 (stereo not given)
MDA-MB-435
  GI50: > 100 µM (inactive)
NCI/ADR-RES
  GI50: > 100 µM (inactive)
PC-3
  GI50: > 100 µM (inactive)

## N#CCCC1(CCC#N)CCCCCCC(CCC#N)(CCC#N)C(O)C1O (stereo not given)
MDA-MB-435
  GI50: > 100 µM (inactive)
NCI/ADR-RES
  GI50: > 100 µM (inactive)
PC-3
  GI50: > 100 µM (inactive)

## Nc1nnc2nc(CC(=O)/C=C/c3ccccc3)c(=O)[nH]n12
DLD-1
  GI50: > 100 µM (inactive)
DMS-114
  GI50: > 100 µM (inactive)
DMS-273
  GI50: > 100 µM (inactive)
KM-20L2
  GI50: > 100 µM (inactive)
RXF 631
  GI50: > 100 µM (inactive)
XF498
  GI50: > 100 µM (inactive)

## O=S(=O)(O)c1cc2ccc1/C=C\c1ccc(cc1S(=O)(=O)O)/N=N\c1ccc(c(S(=O)(=O)O)c1)/C=C\c1ccc(cc1S(=O)(=O)O)/N=N\2
DLD-1
  GI50: > 100 µM (inactive)
DMS-273
  GI50: > 100 µM (inactive)
KM-20L2
  GI50: > 100 µM (inactive)
NCI/ADR-RES
  GI50: > 100 µM (inactive)
XF498
  GI50: > 88.3 µM (inactive)
